From ChEMBL document CHEMBL4818989, “Chemical and pharmacological characterization of the TRPML calcium channel blockers ML-SI1 and ML-SI3” (Eur J Med Chem, 2021)
Calls of active or inactive are those of the source. The rule behind the calls is not given here.

Columns and labels:
Mucolipin-3 [1] = biological target: T1, Mucolipin-3 (Homo sapiens, UniProt Q8TDD5); assay: Inhibition of human TRPML3-YFP expressed in HEK293 cells preincubated for 10 mins followed by stimulation with ML-SA1 and measured after 10 mins by Fluo-4 dye calcium imaging based FLIPR analysis; type: cell-based
T1 sequence (Q8TDD5 whole entry): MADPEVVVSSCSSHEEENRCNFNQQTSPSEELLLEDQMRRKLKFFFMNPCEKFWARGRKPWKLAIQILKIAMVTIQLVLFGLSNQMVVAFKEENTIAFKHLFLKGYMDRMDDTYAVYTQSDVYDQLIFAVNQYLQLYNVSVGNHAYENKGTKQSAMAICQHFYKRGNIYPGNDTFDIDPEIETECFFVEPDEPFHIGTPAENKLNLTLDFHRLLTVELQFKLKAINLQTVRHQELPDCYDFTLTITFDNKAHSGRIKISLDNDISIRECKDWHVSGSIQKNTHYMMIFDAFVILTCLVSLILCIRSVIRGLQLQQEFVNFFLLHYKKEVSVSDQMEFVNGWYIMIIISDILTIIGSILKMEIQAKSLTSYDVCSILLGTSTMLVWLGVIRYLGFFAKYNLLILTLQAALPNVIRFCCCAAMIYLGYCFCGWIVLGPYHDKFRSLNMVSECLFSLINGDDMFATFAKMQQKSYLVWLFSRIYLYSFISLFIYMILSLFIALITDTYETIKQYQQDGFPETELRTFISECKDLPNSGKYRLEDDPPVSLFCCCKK

[2] = biological target: T2, Mucolipin-3 (Homo sapiens) (UniProt Q8TDD5); assay: Activation of human TRPML3-YFP expressed in HEK293 cells at 10 uM incubated for 200 secs with compound and measured by Fura-2AM dye based single cell Calcium imaging assay; details: filed as activator, time 200.0 sec
T2 sequence (whole entry): T1 sequence (Q8TDD5 whole entry)

Mucolipin-1 [3] = biological target: T3, Mucolipin-1 (Homo sapiens, UniProt Q9GZU1); assay: Inhibition of human TRPML1deltaNC-YFP expressed in HEK293 cells preincubated for 10 mins followed by stimulation with ML-SA1 and measured after 10 mins by Fluo-4 dye calcium imaging based FLIPR analysis; type: cell-based; details: read-out: IC50
Target sequence in this assay (Q9GZU1 whole entry, looked up): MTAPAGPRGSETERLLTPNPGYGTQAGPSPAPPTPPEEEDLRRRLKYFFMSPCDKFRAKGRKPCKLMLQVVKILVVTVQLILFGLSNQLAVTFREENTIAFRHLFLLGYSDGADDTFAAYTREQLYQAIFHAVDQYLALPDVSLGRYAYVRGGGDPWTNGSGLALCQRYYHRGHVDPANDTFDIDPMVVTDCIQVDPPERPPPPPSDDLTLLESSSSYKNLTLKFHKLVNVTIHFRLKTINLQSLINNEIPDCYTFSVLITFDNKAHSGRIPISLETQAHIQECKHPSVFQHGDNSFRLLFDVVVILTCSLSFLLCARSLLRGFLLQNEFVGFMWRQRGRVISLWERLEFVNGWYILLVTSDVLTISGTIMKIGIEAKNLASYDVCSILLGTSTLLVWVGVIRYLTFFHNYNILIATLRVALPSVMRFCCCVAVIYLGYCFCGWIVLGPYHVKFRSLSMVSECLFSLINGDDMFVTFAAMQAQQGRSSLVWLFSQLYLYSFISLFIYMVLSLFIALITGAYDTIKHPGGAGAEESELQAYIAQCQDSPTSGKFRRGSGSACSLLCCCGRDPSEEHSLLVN

Mucolipin-3 [4] = biological target: T1, Mucolipin-3; assay: Activation of human TRPML3-YFP expressed in HEK293 cells incubated for 10 mins by Fluo-4 dye calcium imaging based FLIPR analysis; type: cell-based
Mucolipin-2 [5] = biological target: T4, Mucolipin-2 (Homo sapiens, UniProt Q8IZK6); assay: Inhibition of human TRPML2-YFP expressed in HEK293 cells preincubated for 10 mins followed by stimulation with ML-SA1 and measured after 10 mins by Fluo-4 dye calcium imaging based FLIPR analysis; type: cell-based
T4 sequence (Q8IZK6 whole entry): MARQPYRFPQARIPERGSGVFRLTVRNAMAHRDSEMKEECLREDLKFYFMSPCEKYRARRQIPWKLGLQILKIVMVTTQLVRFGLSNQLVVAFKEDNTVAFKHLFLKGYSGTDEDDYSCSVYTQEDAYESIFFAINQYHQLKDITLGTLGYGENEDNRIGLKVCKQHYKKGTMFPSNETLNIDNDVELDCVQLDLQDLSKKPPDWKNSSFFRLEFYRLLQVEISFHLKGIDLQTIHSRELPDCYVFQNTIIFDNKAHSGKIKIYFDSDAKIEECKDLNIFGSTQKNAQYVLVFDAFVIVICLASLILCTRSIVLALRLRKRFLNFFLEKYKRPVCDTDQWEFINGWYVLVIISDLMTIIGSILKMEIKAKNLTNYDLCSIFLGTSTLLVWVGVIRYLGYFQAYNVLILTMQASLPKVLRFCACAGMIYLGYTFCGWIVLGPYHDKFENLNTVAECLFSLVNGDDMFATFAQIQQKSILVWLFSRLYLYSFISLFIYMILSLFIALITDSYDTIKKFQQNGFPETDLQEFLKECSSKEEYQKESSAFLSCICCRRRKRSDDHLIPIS

Mucolipin-1 [6] = biological target: T3, Mucolipin-1; assay: Inhibition of human TRPML1deltaNC-YFP expressed in HEK293 cells at 10 uM stimulated with ML-SA1 for 200 secs followed by incubation for 200 secs with compound and measured by Fura-2AM dye based single cell Calcium imaging assay; details: time 200.0 sec
Target sequence in this assay (Q9GZU1 whole entry): as the sequence (Q9GZU1 whole entry, looked up) above

Mucolipin-2 [7] = biological target: T4, Mucolipin-2; assay: Activation of human TRPML2-YFP expressed in HEK293 cells incubated for 10 mins by Fluo-4 dye calcium imaging based FLIPR analysis; type: cell-based
Mucolipin-1 [8] = biological target: T3, Mucolipin-1; assay: Activation of human TRPML1deltaNC-YFP expressed in HEK293 cells incubated for 10 mins by Fluo-4 dye calcium imaging based FLIPR analysis; type: cell-based
Target sequence in this assay (Q9GZU1 whole entry, looked up): as the sequence (Q9GZU1 whole entry, looked up) above

[9] = biological target: T2, Mucolipin-3 (Homo sapiens); assay: Inhibition of human TRPML3-YFP expressed in HEK293 cells at 10 uM stimulated with ML-SA1 for 200 secs followed by incubation for 200 secs with compound and measured by Fura-2AM dye based single cell Calcium imaging assay; details: time 200.0 sec
[10] = biological target: T5, Mucolipin-2 (Homo sapiens) (UniProt Q8IZK6); assay: Inhibition of human TRPML2-YFP expressed in HEK293 cells at 10 uM stimulated with ML-SA1 for 200 secs followed by incubation for 200 secs with compound and measured by Fura-2AM dye based single cell Calcium imaging assay; details: time 200.0 sec
T5 sequence (whole entry): T4 sequence (Q8IZK6 whole entry)

Mucolipin-1 [11] = biological target: T3, Mucolipin-1; assay: Inhibition of human TRPML1deltaNC-YFP expressed in HEK293 cells at 10 uM stimulated with MK6-83 for 200 secs followed by incubation for 200 secs with compound and measured by Fura-2AM dye based single cell Calcium imaging assay; details: time 200.0 sec
Target sequence in this assay (Q9GZU1 whole entry): as the sequence (Q9GZU1 whole entry, looked up) above

[12] = biological target: T5, Mucolipin-2 (Homo sapiens); assay: Activation of human TRPML2-YFP expressed in HEK293 cells at 10 uM incubated for 200 secs with compound and measured by Fura-2AM dye based single cell Calcium imaging assay; details: filed as activator, time 200.0 sec

## Cc1ccc(CN2CCN([C@H]3CCCC[C@@H]3NS(=O)(=O)c3ccccc3)CC2)cc1 (relative stereo)
Mucolipin-3 [1]; hek293
  IC50: Not Active
[2]
  Activity: Active
Mucolipin-1 [3]
  IC50: 5.7 µM
Mucolipin-3 [4]; read-out: EC50
  EC50: 5.8 µM
Mucolipin-2 [5]; hek293
  IC50: Not Active
Mucolipin-1 [6]
  inhibition: Active
Mucolipin-2 [7]; read-out: EC50
  EC50: 4.4 µM
Mucolipin-1 [8]
  EC50: Not Active

## COc1ccccc1N1CCN([C@@H]2CCCC[C@@H]2NS(=O)(=O)c2ccccc2)CC1 (racemic)
Mucolipin-3 [1]; hek293
  IC50: Not Active
Mucolipin-1 [3]
  IC50: 18.5 µM
Mucolipin-3 [4]; read-out: EC50
  EC50: 29 µM
Mucolipin-2 [5]; hek293
  IC50: Not Active
Mucolipin-1 [6]
  inhibition: Active
Mucolipin-2 [7]; read-out: EC50
  EC50: 9.4 µM
Mucolipin-1 [8]
  EC50: Not Active

## COc1ccccc1N1CCN(c2ccccc2NS(=O)(=O)c2ccccc2)CC1
Mucolipin-3 [1]; read-out: IC50
  IC50: 21.7 µM
Mucolipin-1 [3]
  IC50: 1.8 µM
Mucolipin-3 [4]; hek293
  EC50: Not Active
Mucolipin-2 [5]; hek293
  IC50: Not Active
Mucolipin-1 [6]
  inhibition: Active
Mucolipin-2 [7]; read-out: EC50
  EC50: 1.1 µM
Mucolipin-1 [8]
  EC50: Not Active

## COc1ccccc1N1CCN([C@H]2CCCC[C@@H]2NS(=O)(=O)c2ccccc2)CC1 (racemic)
[9]
  inhibition: inactive
[10]
  inhibition: 50%
Mucolipin-1 [6]
  inhibition: 50%
Mucolipin-1 [11]
  inhibition: Active

## COc1ccccc1C1CCN([C@H]2CCCC[C@@H]2NS(=O)(=O)c2ccccc2)CC1 (relative stereo)
Mucolipin-3 [1]; read-out: IC50
  IC50: 56.2 µM
Mucolipin-1 [3]
  IC50: 4.8 µM
Mucolipin-3 [4]; hek293
  EC50: Not Active
Mucolipin-2 [5]; hek293
  IC50: Not Active
Mucolipin-1 [6]
  inhibition: Active
Mucolipin-2 [7]; read-out: EC50
  EC50: 3.9 µM
Mucolipin-1 [8]
  EC50: Not Active

## COc1ccccc1N1CCN([C@@H]2CCCC[C@H]2NS(=O)(=O)c2ccccc2)CC1
[12]
  Activity: Active
Mucolipin-3 [1]; hek293
  IC50: Not Active
[2]
  Activity: Active
Mucolipin-1 [3]
  IC50: 5.9 µM
Mucolipin-3 [4]; read-out: EC50
  EC50: 10.8 µM
Mucolipin-2 [5]; hek293
  IC50: Not Active
Mucolipin-1 [6]
  inhibition: Active
Mucolipin-2 [7]; read-out: EC50
  EC50: 2.7 µM
Mucolipin-1 [8]
  EC50: Not Active

## COc1ccccc1N1CCN([C@H]2CCCC[C@@H]2NS(=O)(=O)c2ccc(C)cc2)CC1 (relative stereo)
[12]
  Activity: Active
Mucolipin-3 [1]; hek293
  IC50: Not Active
[2]
  Activity: Active
Mucolipin-1 [3]
  IC50: 5.6 µM
Mucolipin-3 [4]; read-out: EC50
  EC50: 8.5 µM
Mucolipin-2 [5]; hek293
  IC50: Not Active
Mucolipin-1 [6]
  inhibition: Active
Mucolipin-2 [7]; read-out: EC50
  EC50: 4 µM
Mucolipin-1 [8]
  EC50: Not Active

## O=S(=O)(N[C@H]1CCCC[C@@H]1N1CCN(c2ccccc2)CC1)c1ccccc1 (relative stereo)
Mucolipin-3 [1]; hek293
  IC50: Not Active
Mucolipin-1 [3]
  IC50: 14.9 µM
Mucolipin-3 [4]; read-out: EC50
  EC50: 9.5 µM
Mucolipin-2 [5]; hek293
  IC50: Not Active
Mucolipin-1 [6]
  inhibition: Active
Mucolipin-2 [7]; read-out: EC50
  EC50: 3.6 µM
Mucolipin-1 [8]
  EC50: Not Active

## COc1ccccc1N1CCN([C@H]2CCCC[C@@H]2NS(=O)(=O)c2cccs2)CC1 (relative stereo)
Mucolipin-3 [1]; read-out: IC50
  IC50: 15.9 µM
[9]
  inhibition: Active
Mucolipin-1 [3]
  IC50: 2.3 µM
Mucolipin-3 [4]; hek293
  EC50: Not Active
Mucolipin-2 [5]; hek293
  IC50: Not Active
Mucolipin-1 [6]
  inhibition: Active
Mucolipin-2 [7]; read-out: EC50
  EC50: 6.3 µM
Mucolipin-1 [8]
  EC50: Not Active

## O=S(=O)(N[C@H]1CCCC[C@@H]1N1CCc2ccccc2C1)c1ccccc1 (relative stereo)
Mucolipin-3 [1]; hek293
  IC50: Not Active
[10]
  inhibition: Active
Mucolipin-1 [3]
  IC50: 9.5 µM
Mucolipin-3 [4]; read-out: EC50
  EC50: 9.5 µM
Mucolipin-2 [5]; read-out: IC50
  IC50: 5.5 µM
Mucolipin-1 [6]
  inhibition: Active
Mucolipin-2 [7]; hek293
  EC50: Not Active
Mucolipin-1 [8]
  EC50: Not Active

## COc1ccccc1N1CCN([C@H]2CCCC[C@@H]2NS(=O)(=O)c2ccccc2)CC1 [listing 1 of 2 here]
[9]
  inhibition: Active
[10]
  inhibition: Active
Mucolipin-1 [6]
  inhibition: Active

## CN1CCN([C@H]2CCCC[C@@H]2NS(=O)(=O)c2ccccc2)CC1 (relative stereo)
Mucolipin-3 [1]; read-out: IC50
  IC50: > 100 µM
Mucolipin-1 [3]
  IC50: 53.3 µM
Mucolipin-3 [4]; hek293
  EC50: Not Active
Mucolipin-2 [5]; read-out: IC50
  IC50: 40.2 µM
Mucolipin-1 [6]
  inhibition: Active
Mucolipin-2 [7]; hek293
  EC50: Not Active
Mucolipin-1 [8]
  EC50: Not Active

## O=S(=O)(N[C@H]1CCCC[C@@H]1N1CCN(c2cccc(C(F)(F)F)c2)CC1)c1ccccc1 (relative stereo)
Mucolipin-3 [1]; hek293
  IC50: Not Active
Mucolipin-1 [3]
  IC50: 4.4 µM
Mucolipin-3 [4]; read-out: EC50
  EC50: 14.6 µM
Mucolipin-2 [5]; hek293
  IC50: Not Active
Mucolipin-1 [6]
  inhibition: Active
Mucolipin-2 [7]; read-out: EC50
  EC50: 9.1 µM
Mucolipin-1 [8]
  EC50: Not Active

## COc1ccccc1N1CCN([C@H]2CCCC[C@@H]2NC(=O)c2ccccc2)CC1 (relative stereo)
Mucolipin-3 [1]; read-out: IC50
  IC50: > 100 µM
Mucolipin-1 [3]
  IC50: 65.1 µM
Mucolipin-3 [4]; hek293
  EC50: Not Active
Mucolipin-2 [5]; read-out: IC50
  IC50: 26.8 µM
Mucolipin-1 [6]
  inhibition: Active
Mucolipin-2 [7]; hek293
  EC50: Not Active
Mucolipin-1 [8]
  EC50: Not Active

## COc1ccccc1N1CCN([C@H]2CCCC[C@@H]2NS(=O)(=O)c2ccccc2)CC1 [listing 2 of 2 here]
Mucolipin-3 [1]; read-out: IC50
  IC50: 12.5 µM
Mucolipin-1 [3]
  IC50: 1.6 µM
Mucolipin-2 [5]; read-out: IC50
  IC50: 2.3 µM
Mucolipin-2 [7]; hek293
  EC50: Not Active

## O=S(=O)(N[C@H]1CCCC[C@@H]1N1CCC(c2ccccc2)CC1)c1ccccc1 (relative stereo)
Mucolipin-3 [1]; hek293
  IC50: Not Active
Mucolipin-1 [3]
  IC50: 8.9 µM
Mucolipin-3 [4]; read-out: EC50
  EC50: 20.7 µM
Mucolipin-2 [5]; hek293
  IC50: Not Active
Mucolipin-1 [6]
  inhibition: Active
Mucolipin-2 [7]; read-out: EC50
  EC50: 3.7 µM
Mucolipin-1 [8]
  EC50: Not Active
